We go through 85 compounds from patent US20210220408A1, “ARYL HYDROCARBON RECEPTOR ANTAGONISTS AND METHODS OF USE” (Magenta Therapeutics Inc., priority 2018, published 2021).

The target in this assay is T1, aryl hydrocarbon receptor (AHR) (Homo sapiens, UniProt P35869).
T1 sequence (P35869 11-848): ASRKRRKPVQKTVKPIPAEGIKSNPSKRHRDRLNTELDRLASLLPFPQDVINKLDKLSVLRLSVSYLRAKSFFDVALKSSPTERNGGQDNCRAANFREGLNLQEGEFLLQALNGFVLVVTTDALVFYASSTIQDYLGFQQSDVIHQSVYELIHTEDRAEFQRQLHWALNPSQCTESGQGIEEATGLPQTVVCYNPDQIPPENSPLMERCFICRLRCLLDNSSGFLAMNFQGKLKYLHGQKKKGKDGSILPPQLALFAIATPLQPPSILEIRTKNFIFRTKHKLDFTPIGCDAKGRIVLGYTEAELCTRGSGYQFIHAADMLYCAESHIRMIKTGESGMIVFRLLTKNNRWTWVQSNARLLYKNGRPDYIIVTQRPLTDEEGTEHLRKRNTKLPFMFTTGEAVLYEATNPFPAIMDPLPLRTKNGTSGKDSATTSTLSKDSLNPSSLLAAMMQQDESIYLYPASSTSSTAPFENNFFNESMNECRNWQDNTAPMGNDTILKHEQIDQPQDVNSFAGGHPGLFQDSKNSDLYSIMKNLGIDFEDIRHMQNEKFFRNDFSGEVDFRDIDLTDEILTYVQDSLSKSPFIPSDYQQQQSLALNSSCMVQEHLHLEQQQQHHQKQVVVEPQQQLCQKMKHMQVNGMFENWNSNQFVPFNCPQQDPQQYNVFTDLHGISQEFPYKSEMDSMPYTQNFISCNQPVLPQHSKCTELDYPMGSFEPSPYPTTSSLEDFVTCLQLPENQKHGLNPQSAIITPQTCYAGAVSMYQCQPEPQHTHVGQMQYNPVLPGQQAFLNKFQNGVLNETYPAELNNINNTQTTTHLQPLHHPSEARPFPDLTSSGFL
The assay is described as follows: DRE-Luciferase reporter high-throughput screen (AHR antagonist, VAF347-activated).
Consider `COc1cccc(Cn2c3c(cc(NC(=O)c4ccc(C)cc4)c2=O)C(=O)CCC3)c1` [44A], for which the IC50 was 1000 to 2000 nM.
The value for `COc1ccc([N+](=O)[O-])cc1-c1ccc(/C=N/Nc2ccccc2)o1` [44B] was 1000 to 2000 nM; that for `O=C(Nc1cc(=O)c2ccccc2o1)c1ccc(Cl)cc1` [45A] was over 2000 nM; that for `FC(F)(F)c1ccc(N/N=C/c2ccc(Cl)cc2)nc1` [45B] was 1000 to 2000 nM.
`CCCn1cnc(-c2nc(C(=O)Nc3cc(C)ccc3C)c3ccccn23)c1` [46A]: the IC50 fell in the range of 1000 to 2000 nM.
The result for `FC(F)(F)c1ccc(CSc2nccc(-c3cccnc3)n2)cc1` [46B] reads 200 to 500 nM.
As to `Cc1cccc(NC(=O)c2nc(-c3cn(CC4CCCO4)cn3)n3ccccc23)c1` (stereo not shown) [47A], the IC50 is over 2000 nM.
As to `COc1ccc(Nc2cc(C)nc(-c3ccccc3O)n2)cc1` [47B], the IC50 lay in the range of 1000 to 2000 nM.
`CCn1cnc(-c2nc(C(=O)Nc3cccc(F)c3)c3ccccn23)c1` [48A] showed an IC50 of over 2000 nM.
The value for `O=[N+]([O-])c1cccc(-c2ccc(SCc3ccccc3F)nn2)c1` [48B] was 500 to 1000 nM; that for `Cc1nc(NC(=O)c2cc3nc(N(C)C)n(-c4ccccc4)c3s2)sc1C` [49A] was 1000 to 2000 nM; that for `Brc1ccc(-c2ccc(NC3CCCC3)nn2)cc1` [49B] was 1000 to 2000 nM.
In the case of `Cc1ccc2cc(NC(=O)c3cccc4c3OC(C)(C)C4)ccc2n1` [50A], the IC50 is over 2000 nM.
The value for `CN(/N=C/c1cc(Br)cs1)c1ccc(Cl)nn1` [50B] was 500 to 1000 nM.
The compound `Cc1cccnc1NC(=O)c1cc2c(ccc3ccccc32)[nH]1` [51A] displayed an IC50 of 1000 to 2000 nM.
`Cc1ccc(OCc2nc(N)nc(N(C)C)n2)cc1C` [51B] displayed an IC50 of 1000 to 2000 nM.
Turning to `COc1ccccc1NC(=O)c1sc2nc(N3CCOCC3)c3c(c2c1N)CCCC3` [52A], the IC50 was in the range of 1000 to 2000 nM.
The result for `O=[N+]([O-])c1ccc(-n2cnc(-c3ccc(F)cc3)c2)nc1` [52B] reads 200 to 500 nM.
The value for `Cn1c(SCc2ccccc2Cl)nnc1-c1csc(-c2cccnc2)n1` [53A] was 1000 to 2000 nM; that for `Cn1c(Cl)cnc1-c1cc(=O)c2cc(Cl)ccc2o1` [53B] was 1000 to 2000 nM.
The result for `c1ccc(-c2nc(COc3cccc(-n4cnnn4)c3)cs2)cc1` [54A] reads 1000 to 2000 nM.
For the compound `Fc1ccccc1OCc1cnn(-c2ccccc2)c1` [54B], the IC50 fell in the range of 500 to 1000 nM.
In the case of `CC(=O)c1csc(COc2cc(Cl)cc(Cl)c2)n1` [55A], the IC50 was in the range of 1000 to 2000 nM.
Compound `CC(=O)Nc1cn(-c2ccccc2)nc1-c1ccc(Cl)s1` [55B] had an IC50 of 500 to 1000 nM.
In turn, `CN1CCN(c2nc(-c3cc(F)ccc3F)cs2)CC1` [56A] returned an IC50 of over 2000 nM.
The compound `CC(=O)Oc1ccc2c(=O)c(-c3cnn(-c4ccccc4)c3)coc2c1C` [56B] showed an IC50 of 500 to 1000 nM.
The result for `CS(=O)(=O)N1CCc2cc(-c3csc(Cc4cn5cc(Cl)cc(Cl)c5n4)n3)ccc21` [57A] reads 1000 to 2000 nM.
The compound `CCOC(=O)Nc1ccc(-n2ccc(C)n2)cc1` [57B] returned an IC50 of 1000 to 2000 nM.
The result for `CCN(C(=O)C1CC1)c1nc(-c2ccc(OC)cc2)cs1` [58A] reads 1000 to 2000 nM; that for `O=C(CNC1=NS(=O)(=O)c2ccccc21)OCc1cn(-c2ccccc2)nc1-c1ccccc1` [58B], over 2000 nM.
The result for `Cc1nn(-c2ccccc2)c(N)c1-c1nc(-c2ccc(Cl)cc2)cs1` [59A] reads over 2000 nM; that for `CN(C)C(=O)c1ccc(-c2cc(C(F)(F)F)nn2C)s1` [59B], 500 to 1000 nM; that for `O=C(NCCc1ccccc1)c1cnc(-c2noc3ccccc23)s1` [60A], over 2000 nM.
As to `CNC(=O)c1ccc(-c2cc(C(F)(F)F)nn2C)s1` [60B], the IC50 lay in the range of 1000 to 2000 nM.
The result for `O=C(NC1CC1)c1cnc(-c2noc3ccccc23)s1` [61A] reads 1000 to 2000 nM; that for `Cc1c(Br)c(C(=O)N2CCc3ccccc32)nn1C` [61B], 1000 to 2000 nM.
The value for `Cc1csc(-c2ccc(NC(=O)NCc3cc(C)on3)cc2)n1` [62A] was over 2000 nM; that for `Cc1cc(C)c2cc(C(=O)N(C)Cc3ccc(C)o3)[nH]c2c1` [62B] was 500 to 1000 nM; that for `Cc1nc(-c2ccccc2F)sc1C(=O)NCc1ccccn1` [63A] was over 2000 nM.
Compound `CCc1cccc2c(C(=O)CSc3nnnn3C)c[nH]c12` [63B] displayed an IC50 of 1000 to 2000 nM.
Take `CC(=O)c1sc(-c2ccc(Oc3ncnc4sccc34)cc2)nc1C` [64A]: the IC50 lay in the range of 1000 to 2000 nM.
As for `Cc1ccc2[nH]c(SCc3ccccc3C)nc2c1` [64B], the IC50 fell in the range of 500 to 1000 nM.
The compound `CC(C)NC(=O)c1ccc2c(-c3nccs3)noc2c1` [65A] came in with an IC50 of 1000 to 2000 nM.
The result for `c1ccc2nc(SCc3nc4ccccc4[nH]3)ccc2c1` [65B] reads 1000 to 2000 nM; that for `Nc1cnc(C(=O)c2ccc(Cl)cc2)s1` [66A], 1000 to 2000 nM; that for `Cc1nn(-c2nc3ccccc3[nH]2)c2c1C(=O)CC(c1cccs1)C2` (stereo not shown) [66B], 1000 to 2000 nM.
Take `Cc1cc([N+](=O)[O-])c(N)cc1N1CCN(c2ccccc2)CC1` [67A]: the IC50 was in the range of 1000 to 2000 nM.
The value for `Cn1c(COc2cccc3ccccc23)nc2ccccc21` [67B] was 1000 to 2000 nM; that for `COc1ccc(N2CCN(c3nc(OC)nc(OC)n3)CC2)cc1` [68A] was 1000 to 2000 nM; that for `CN(Cc1ccsc1)c1nc2ccccn2c1[N+](=O)[O-]` [68B] was 1000 to 2000 nM.
The value for `CC(=O)c1cnc(N2CCN(c3cccc(Cl)c3)CC2)nc1C` [69A] was 1000 to 2000 nM.
For the compound `CSc1nc2cc(-c3ccc(Cl)cc3)nn2c(N)c1C#N` [69B], the IC50 is under 200 nM.
The result for `Cc1cc(C)nc(N2CCN(c3ccc(Cl)cc3)CC2)n1` [70A] reads over 2000 nM.
The value for `N#Cc1cnc2c(-c3ccc(Cl)cc3)cnn2c1` [70B] was 500 to 1000 nM; that for `O=C1CSC(N2CCN(c3ccc(Cl)c(Cl)c3)CC2)=N1` [71A] was over 2000 nM; that for `COc1ccc(-c2cnn3c(C)cc(C)nc23)cc1OC` [71B] was 1000 to 2000 nM.
In the case of `Clc1ccc(-c2nc3cc(Br)cnc3[nH]2)cc1` [72B], the IC50 is under 200 nM.
The value for `FC(F)(F)c1nnc2ccc(N3CCN(c4ccccc4)CC3)nn12` [73A] was over 2000 nM; that for `CCOc1ccc(-n2nc3ccc(NC(=O)COc4ccccc4Cl)cc3n2)cc1` [73B] was 500 to 1000 nM; that for `COc1ccc(N2CCN(c3cc(C)nn4cnnc34)CC2)cc1` [74A] was over 2000 nM.
`Cc1nc2nc(SCc3ccc(Cl)cc3)nn2c(C)c1Cl` [74B] gave an IC50 of 1000 to 2000 nM.
For the compound `c1ccc(N2CCN(c3nc(N4CCCCC4)nc4nccnc34)CC2)cc1` [75A], the IC50 fell in the range of 1000 to 2000 nM.
Compound `Cc1c(C(N)=O)nnc2cc(-c3ccccc3)nn12` [75B] returned an IC50 of 1000 to 2000 nM.
The value for `CC1CN=C(N2CCN(c3nc4c(cc3C#N)CCC4)CC2)S1` (stereo not shown) [76A] was 1000 to 2000 nM; that for `Ic1ccc(-c2cnc(-c3ccncc3)o2)cc1` [76B] was 200 to 500 nM; that for `Cc1nc(N2CCN(c3ccccc3F)CC2)nc2c1C(=O)CCC2` [77A] was 1000 to 2000 nM.
The compound `Cc1cnn(Cc2ncc(-c3ccccc3Br)o2)c1` [77B] registered an IC50 of over 2000 nM.
`Cc1ccc(N2CCN(C(=O)Nc3cc(F)cc(F)c3)CC2)nn1` [78A] displayed an IC50 of 1000 to 2000 nM.
`COc1ccc(Nc2oc(-c3ccccc3C)nc2C#N)cc1` [78B] registered an IC50 of 500 to 1000 nM.
The value for `Cc1cc(N(C)C)nc(N2CCN(C(=O)Nc3cccc(F)c3)CC2)n1` [79A] was 1000 to 2000 nM; that for `Cc1cc(C)c(C#N)c(SCc2cc(-c3cccs3)on2)n1` [79B] was 1000 to 2000 nM.
`N#Cc1ccc(N2CCN(C(=O)Nc3cccc(C(F)(F)F)c3)CC2)nc1` [80A] registered an IC50 of 1000 to 2000 nM.
The compound `Nc1nccc(-c2cc(-c3cccc(C(F)(F)F)c3)no2)n1` [80B] came in with an IC50 of 500 to 1000 nM.
The value for `O=C(Nc1cccnc1N1CCN(c2ncc(C(F)(F)F)cc2Cl)CC1)c1ccc(F)cc1` [81A] was 1000 to 2000 nM.
The value for `Fc1ccc(-c2cc(N3CCCCC3)on2)cc1` [81B] was over 2000 nM; that for `CCOC(=O)N1CCN(c2nc(Nc3ccc(C)cc3C)c3nccnc3n2)CC1` [82A] was 1000 to 2000 nM.
The result for `COc1ccc(NC(=O)CSc2nnc(-c3sc4nc(C)cc(C)c4c3N)o2)cc1` [82B] reads 500 to 1000 nM; that for `Clc1ccc(/C=N/Nc2nc3cc(Cl)ccc3[nH]2)cc1` [83A], over 2000 nM.
In turn, `CCC(C)C(=O)Nc1ccc(-c2nnc(-c3ccccc3C)o2)cc1` (stereo not shown) [83B] showed an IC50 of 500 to 1000 nM.
The compound `COC(OC)c1ccnc(-c2ccc(I)c(F)c2)n1` [84A] registered an IC50 of 1000 to 2000 nM.
Regarding `Clc1ccc(-c2noc(-c3csnn3)n2)cc1` [84B], the IC50 is 500 to 1000 nM.
The result for `CSc1cc(CSc2ccc(Cl)cc2)nc(-c2ccccn2)n1` [85A] reads 1000 to 2000 nM; that for `c1ccc(-c2nc(-c3ccc4c(c3)CCO4)no2)cc1` [85B], 500 to 1000 nM; that for `COc1cccc(-c2cc(C(F)(F)F)nc(-n3cc(Cl)cn3)n2)c1` [86A], 1000 to 2000 nM.
As to `Clc1ccc(-c2noc(-c3c[nH]nc3-c3ccccc3)n2)cc1` [86B], the concentration for half-maximal inhibition (IC50) is over 2000 nM.

Broadly, the IC50 is the concentration needed to halve the response being measured. Low readings indicate greater potency, high ones weaker potency.
